Source: patent US8426612B2, “Synthesis of 3-{[(2R)-1-methylpyrrolidin-2-yl]methyl}-5[2-(phenylsulfonyl)ethyl]-1H-indole” (F.I.S. Fabbrica Italiana Sintetici S.p.A., priority 2009, dated 2013)

What was measured:
[1] = Stability tests of Eletriptan hydrobromide Beta form polymorph in various solvents, temperatures and times; format: physicochemical; details: all experiments of the 1st table: various solvents, RT to 80° C. or heating, 5-48 hr; DSC trace
Excerpt: Eletriptan hydrobromide Beta form obtained according to the inventive process has been subject to a series of experiments to assess its stability against the conversion into Form Alpha of higher melting point or in amorphous.
These experiments have been performed in various solvents and at various temperature and time conditions. […] The DSC trace is the same for all the product prepared according to Example 18 and is the same of that of Beta polymorph.

[2] = Hygroscopicity test as described in the European Pharmacopoeia 5.0; format: physicochemical; details: 25° C., 80% rel. humidity, 24 h
Protocol: Eletriptan hydrobromide Beta stable form obtained according to the inventive process has been subject to the hygroscopicity test as described in the European Pharmacopoeia 5.0 (25° C., 80% rel. humidity, 24 h).

[3] = DSC study with heating/cooling cycles to convert Beta form to other forms; format: physicochemical
[4] = Prior-art experiments to convert Beta form to Alpha form or amorphous, repeated under exactly the same conditions; format: physicochemical; details: conditions of U.S. Pat. No. 6,110,940 (example 2) and WO2008/137134 (examples 16-19; 2, 7, 8, 12, 13)
Protocol: In addition, the same experiments described in U.S. Pat. No. 6,110,940 (example 2) and WO2008/137134 (examples 16, 17, 18, 19) to convert Eletriptan Beta form to Alpha form and those described in WO2008/137134 (examples 2, 7, 8, 12 and 13) to convert Eletriptan Beta form to amorphous were carried out on Eletriptan Hydrobromide form Beta of invention, applying exactly the same conditions. […] There results confirms the stability of Eletriptan hydrobromide Beta form of invention and his different behaviour in comparison with the same form described in the State of the Art.

[5] = reported in U.S. Pat. No. 6,110,940; converts into Form Alpha; cited from earlier work

Row | SMILES | stability against conversion into Form Alpha, amorphous or other forms [1] | hygroscopicity (classification) [2] | hygroscopicity (value) [2] | polymorphic form obtained [3] | polymorphic form obtained [4] | stability of polymorph [5]
1 | Br.CN1CCC[C@@H]1Cc1c[nH]c2ccc(CCS(=O)(=O)c3ccccc3)cc12 [Eletriptan hydrobromide Form Beta, 3-{[(2R)-1-methylpyrrolidin-2-yl]methyl}-5-[2-(phenylsulfonyl)ethyl]-1H-indole hydrobromide] | did not convert into Form A, amorphous or other crystalline forms or in any hydrated form | not hygroscopic | 0.1% | provided always Form Beta | provided only Eletriptan hydrobromide form Beta | 
2 | Br.CN1CCC[C@@H]1Cc1c[nH]c2ccc(CCS(=O)(=O)c3ccccc3)cc12 [Form Beta of Eletriptan hydrobromide] |  |  |  |  |  | not stable
